Measured values taken from US20250304623A1, “PEPTIDES FOR INTRACELLULAR DELIVERY” (UNIVERSIDADE DE SANTIAGO DE COMPOSTELA, priority 2022, published 2025).
*: point of attachment. NHNH2 = NN*

How the values were obtained:
Assay type in all cases: cell-based
ARPE19 cells [1] = assay: RLuc pDNA delivery, robotic library screening, ARPE19
[2] = tested on: A549 cells expressing EGFP; assay: Cas9-RNP delivery against EGFP (gene editing, plate reader), A549; settings: A549 cells
Method in brief: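 A549 cells stably expressing EGFP were seeded in 96-well plates at 50,000 cell/mL (100 μL/w) the day before. A Cas9 ribonucleoprotein targeting the EGFP gene was complexed with amphiphile for 30 min at room temperature, then applied for 4 h at 50 nM Cas9-RNP. EGFP fluorescence was read on a plate reader after 72 h, in triplicate.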

ARPE19 cells [3] = assay: EGFP mRNA delivery, robotic library screening, ARPE19
Method in brief: (§1)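 Transfection used amphiphile at final 2.5, 5 or 10 μM with EGFP mRNA (25 ng/well) for 4 h without serum, then medium with 10% FBS. Plate-reader EGFP signal at 72 h, untreated background removed, mean of triplicates.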

A549 cells = assay: EGFP mRNA delivery, robotic library screening, A549
Method in brief: as §1

| Substance | mean luminescent intensity (RLuc pDNA) (ARPE19 cells [1]; Myristoleyl, 5 μM) [RLU] | mean luminescent intensity (RLuc pDNA) (ARPE19 cells [1]; Myristoleyl, 10 μM) [RLU] | mean luminescent intensity (RLuc pDNA) (ARPE19 cells [1]; Myristoleyl, 15 μM) [RLU] | percentage of gene editing, GFP fluorescence intensity decrease (% of reduction) ([2]; Dodecanal, 10 μM) [%] | percentage of gene editing, GFP fluorescence intensity decrease (% of reduction) ([2]; Myristoleyl, 5 μM) [%] | percentage of gene editing, GFP fluorescence intensity decrease (% of reduction) ([2]; Myristoleyl, 10 μM) [%] | percentage of gene editing, GFP fluorescence intensity decrease (% of reduction) ([2]; Myristoleyl, 15 μM) [%] | mean fluorescence intensity (EGFP mRNA) (ARPE19 cells [3]; Myristoleyl, 5 μM) | mean fluorescence intensity (EGFP mRNA) (A549 cells; Myristoleyl, 5 μM) | mean fluorescence intensity (EGFP mRNA) (A549 cells; Myristoleyl, 10 μM) | mean luminescent intensity (RLuc pDNA) (ARPE19 cells [1]; Palmitoleyl, 5 μM) [RLU] | mean luminescent intensity (RLuc pDNA) (ARPE19 cells [1]; Petroselinyl, 5 μM) [RLU] | percentage of gene editing, GFP fluorescence intensity decrease (% of reduction) ([2]; Palmitoleyl, 15 μM) [%] | percentage of gene editing, GFP fluorescence intensity decrease (% of reduction) ([2]; Petroselinyl, 5 μM) [%] | percentage of gene editing, GFP fluorescence intensity decrease (% of reduction) ([2]; Petroselinyl, 15 μM) [%] | mean fluorescence intensity (EGFP mRNA) (ARPE19 cells [3]; Petroselinyl, 5 μM) | mean fluorescence intensity (EGFP mRNA) (ARPE19 cells [3]; Petroselinyl, 10 μM) | mean fluorescence intensity (EGFP mRNA) (A549 cells; Petroselinyl, 2.5 μM) | mean fluorescence intensity (EGFP mRNA) (A549 cells; Petroselinyl, 5 μM) | mean fluorescence intensity (EGFP mRNA) (A549 cells; Petroselinyl, 10 μM) | further results |
| --- | --- | --- | --- | --- | --- | --- | --- | --- | --- | --- | --- | --- | --- | --- | --- | --- | --- | --- | --- | --- | --- |
| Ac-RK*LRRLLRK*-NH2 (Ac-RK(NHNH2)LRRLLRK(NHNH2)-NH2; not fully specified; printed as Ac-RK*LRRLLRK*-NH2; also: K*2,K*9: native or modified lysine (ε-amide to a linker)) [Peptide 9.2] | −374 | −528 | −547 | −22 | 9 | 7 | 14 | 941 | 205 | −79 |  |  |  |  |  |  |  |  |  |  | percentage of gene editing, GFP fluorescence intensity decrease (% of reduction) ([2]; Dodecanal, 15 μM): 4%; mean fluorescence intensity (EGFP mRNA) (ARPE19 cells [3]; Myristoleyl, 2.5 μM): 1377 |
| Ac-RRHK*RLK*RRLK*RL-NH2 (Ac-RRHK(NHNH2)RLK(NHNH2)RRLK(NHNH2)RL-NH2; not fully specified; printed as Ac-RRHK*RLK*RRLK*RL-NH2; also: K*4,K*7,K*11: native or modified lysine (ε-amide to a linker)) [13(Leu-His)] | 6946 | 72 | 102 |  | 13 | 20 | 45 |  | 370 | 569 | 8615 | 4661 | 21 | 13 | 42 | 318 | 419 | 1141 | 437 | 245 | percentage of gene editing, GFP fluorescence intensity decrease (% of reduction) ([2]; Petroselinyl, 10 μM): 16%; mean fluorescence intensity (EGFP mRNA) (A549 cells; Dodecanal, 2.5 μM): 2133; mean fluorescence intensity (EGFP mRNA) (A549 cells; Dodecanal, 5 μM): 803; mean fluorescence intensity (EGFP mRNA) (A549 cells; Dodecanal, 10 μM): 170; mean fluorescence intensity (EGFP mRNA) (A549 cells; Myristoleyl, 2.5 μM): 882; mean fluorescence intensity (EGFP mRNA) (A549 cells; Palmitoleyl, 2.5 μM): 1406; mean fluorescence intensity (EGFP mRNA) (A549 cells; Palmitoleyl, 5 μM): 916; mean fluorescence intensity (EGFP mRNA) (A549 cells; Palmitoleyl, 10 μM): 617 |
| Ac-RRLK*RLK*RRLK*RL-NH2 [Peptide 13.3] | 6819 | 3064 | −316 | 20 | 21 | 33 | 62 | 1055 | 170 | 240 | 13194 | 1458 | 48 | 12 | 56 | 828 | 1310 | 245 | 117 | 107 | mean luminescent intensity (RLuc pDNA) (ARPE19 cells [1]; Dodecanal, 5 μM): 2557 RLU; mean luminescent intensity (RLuc pDNA) (ARPE19 cells [1]; Oleyl, 5 μM): 1946 RLU; mean luminescent intensity (RLuc pDNA) (ARPE19 cells [1]; Oleyl, 10 μM): 957 RLU; mean luminescent intensity (RLuc pDNA) (ARPE19 cells [1]; Oleyl, 15 μM): 1379 RLU; mean luminescent intensity (RLuc pDNA) (ARPE19 cells [1]; Petroselinyl, 10 μM): 35316 RLU; mean luminescent intensity (RLuc pDNA) (ARPE19 cells [1]; Petroselinyl, 15 μM): 5730 RLU; percentage of gene editing, GFP fluorescence intensity decrease (% of reduction) ([2]; Oleyl, 10 μM): 14%; percentage of gene editing, GFP fluorescence intensity decrease (% of reduction) ([2]; Oleyl, 15 μM): 48%; percentage of gene editing, GFP fluorescence intensity decrease (% of reduction) ([2]; Palmitoleyl, 10 μM): 33%; percentage of gene editing, GFP fluorescence intensity decrease (% of reduction) ([2]; Petroselinyl, 10 μM): 32%; mean fluorescence intensity (EGFP mRNA) (ARPE19 cells [3]; Dodecanal, 5 μM): 1162; mean fluorescence intensity (EGFP mRNA) (ARPE19 cells [3]; Dodecanal, 10 μM): 1636; mean fluorescence intensity (EGFP mRNA) (ARPE19 cells [3]; Myristoleyl, 2.5 μM): 1787; mean fluorescence intensity (EGFP mRNA) (ARPE19 cells [3]; Myristoleyl, 10 μM): 1763; mean fluorescence intensity (EGFP mRNA) (ARPE19 cells [3]; Petroselinyl, 2.5 μM): 1485; mean fluorescence intensity (EGFP mRNA) (A549 cells; Dodecanal, 2.5 μM): 298; mean fluorescence intensity (EGFP mRNA) (A549 cells; Oleyl, 2.5 μM): 214 |
| Ac-RRLK*RLLRRLK*RLK*RRL-NH2 (Ac-RRLK(NHNH2)RLLRRLK(NHNH2)RLK(NHNH2)RRL-NH2; not fully specified; printed as Ac-RRLK*RLLRRLK*RLK*RRL-NH2; also: K*4,K*11,K*14: native or modified lysine (ε-amide to a linker)) [Peptide 17.3] | −148 | −514 | −339 | 75 | 17 |  |  | 323 | 309 |  | 7062 | 5399 | 72 | 23 | 66 | 351 | 293 | 791 | 440 | 274 | mean luminescent intensity (RLuc pDNA) (ARPE19 cells [1]; Dodecanal, 5 μM): 411 RLU; mean luminescent intensity (RLuc pDNA) (ARPE19 cells [1]; Dodecanal, 10 μM): 617 RLU; mean luminescent intensity (RLuc pDNA) (ARPE19 cells [1]; Dodecanal, 15 μM): 1217 RLU; mean luminescent intensity (RLuc pDNA) (ARPE19 cells [1]; Oleyl, 10 μM): 822 RLU; mean luminescent intensity (RLuc pDNA) (ARPE19 cells [1]; Oleyl, 15 μM): 1043 RLU; mean luminescent intensity (RLuc pDNA) (ARPE19 cells [1]; Palmitoleyl, 15 μM): 413 RLU; mean luminescent intensity (RLuc pDNA) (ARPE19 cells [1]; Petroselinyl, 15 μM): 398 RLU; percentage of gene editing, GFP fluorescence intensity decrease (% of reduction) ([2]; Dodecanal, 15 μM): 34%; percentage of gene editing, GFP fluorescence intensity decrease (% of reduction) ([2]; Oleyl, 10 μM): 72%; percentage of gene editing, GFP fluorescence intensity decrease (% of reduction) ([2]; Oleyl, 15 μM): 34%; percentage of gene editing, GFP fluorescence intensity decrease (% of reduction) ([2]; Palmitoleyl, 5 μM): 17%; percentage of gene editing, GFP fluorescence intensity decrease (% of reduction) ([2]; Palmitoleyl, 10 μM): 60%; mean fluorescence intensity (EGFP mRNA) (ARPE19 cells [3]; Dodecanal, 5 μM): 466; mean fluorescence intensity (EGFP mRNA) (ARPE19 cells [3]; Myristoleyl, 10 μM): 393; mean fluorescence intensity (EGFP mRNA) (ARPE19 cells [3]; Petroselinyl, 2.5 μM): 479; mean fluorescence intensity (EGFP mRNA) (A549 cells; Myristoleyl, 2.5 μM): 563 |
